Measured values from patent publication US7893074B2, “2, 4-pyrimidinediamines useful in the treatment of neoplastic diseases, inflammatory and immune system disorders” (Novartis AG, priority 2003, dated 2011).
Read-outs that look alike come from different tables or passages of the source.

Key:
[1] = system: human NPM-ALK overexpressing murine BaF3 cells; assay: Growth inhibition of BaF3-NPM-ALK cells (Yopro staining); assay type: cell-based; conditions: Mus musculus, 48 h; two days incubation
Text: The expression of NPM-ALK is achieved by transfecting the BaF3 cell line with an expression vector pCIneo™ (Promega Corp., Madison Wis., USA) coding for NPM-ALK and subsequent selection of G418 resistant cells. Non-transfected BaF3 cells depend on IL-3 for cell survival. In contrast NPM-ALK expressing BaF3 cells (named BaF3-NPM-ALK hereinafter) can proliferate in the absence of IL-3 because they obtain proliferative signal through NPM-ALK kinase. Putative inhibitors of the NPM-ALK kinase therefore abolish the growth signal and result in antiproliferative activity. […] The inhibitory activity of the compounds of formula I is determined, briefly, as follows: BaF3-NPM-ALK cells (15,000/microtitre plate well) are transferred to 96-well microtitre plates. […] The growth of the BaF3-NPM-ALK cells is measured by means of Yopro™ staining [T Idziorek et al. J. Immunol. […] Cell lysis is completed within 60 min at room temperature and total amount of Yopro bound to DNA is determined by measurement using the Cytofluor II 96-well reader (PerSeptive Biosystems) with the following settings: Excitation (nm) 485/20 and Emission (nm) 530/25. IC50 values are determined by a computer-aided system using the formula: IC50=[(ABStest−ABSstart)/(ABScontrol−ABSstart)]×100. […]

FAK = FAK (Mus musculus, UniProt P34152); assay: Phos IC50 (phosphorylation); assay type: cell-based
[2] = target: Focal Adhesion Kinase (FAK) (Homo sapiens, UniProt Q05397); assay: FAK assay system (Focal Adhesion Kinase inhibition); assay type: biochemical
[3] = system: Mouse mammary carcinoma 4T1 cells; assay: Anchorage-independent tumor cell growth assay; assay type: cell-based; conditions: Mus musculus, 4T1
Experimental: Cells are cultured for 2 h and inhibitors are added at various concentrations in a final concentration of 0.1% DMSO. After 48 h, cell growth is assayed with the cell counting kit-8 (Wako Pure Chemical), which uses a water soluble tetrazolium salt WST8. Twenty μL of the reagent is added into each well and cells are further cultured for 2 h. The optical density is measured at 450 nm.

T Cell = T Cell Migration; assay type: cell-based; conditions: T-cell
IGF-IR = IGF-IR (Homo sapiens, UniProt P08069); assay: Cellular Capture ELISA of IGF-I induced autophosphorylation of the IGF-IR; assay type: cell-based; conditions: read-out: IGF-1R IC50
Experimental: In this assay the activity of the compounds of the invention against Insulin-like growth factor I (IGF-I) induced autophosphorylation of the IGF-IR is determined.

[4] = target: GST-ALK protein tyrosine kinase (Homo sapiens, UniProt Q9UM73); assay: In vitro enzyme assay using GST-ALK protein tyrosine kinase (filter binding assay); assay type: biochemical; conditions: b80; assay not specified further; lower end printed as <0.5; read-out: IC50, inhibition of tyrosine kinase activity of anaplastic lymphoma kinase (ALK)
Experimental: Assays are incubated for 10 min at ambient temperature. […] Following washing (0.5% H3PO4), plates are counted in a liquid scintillation counter. IC50 values are calculated by linear regression analysis of the percentage inhibition.

FAK, sequence (P34152 2-1052): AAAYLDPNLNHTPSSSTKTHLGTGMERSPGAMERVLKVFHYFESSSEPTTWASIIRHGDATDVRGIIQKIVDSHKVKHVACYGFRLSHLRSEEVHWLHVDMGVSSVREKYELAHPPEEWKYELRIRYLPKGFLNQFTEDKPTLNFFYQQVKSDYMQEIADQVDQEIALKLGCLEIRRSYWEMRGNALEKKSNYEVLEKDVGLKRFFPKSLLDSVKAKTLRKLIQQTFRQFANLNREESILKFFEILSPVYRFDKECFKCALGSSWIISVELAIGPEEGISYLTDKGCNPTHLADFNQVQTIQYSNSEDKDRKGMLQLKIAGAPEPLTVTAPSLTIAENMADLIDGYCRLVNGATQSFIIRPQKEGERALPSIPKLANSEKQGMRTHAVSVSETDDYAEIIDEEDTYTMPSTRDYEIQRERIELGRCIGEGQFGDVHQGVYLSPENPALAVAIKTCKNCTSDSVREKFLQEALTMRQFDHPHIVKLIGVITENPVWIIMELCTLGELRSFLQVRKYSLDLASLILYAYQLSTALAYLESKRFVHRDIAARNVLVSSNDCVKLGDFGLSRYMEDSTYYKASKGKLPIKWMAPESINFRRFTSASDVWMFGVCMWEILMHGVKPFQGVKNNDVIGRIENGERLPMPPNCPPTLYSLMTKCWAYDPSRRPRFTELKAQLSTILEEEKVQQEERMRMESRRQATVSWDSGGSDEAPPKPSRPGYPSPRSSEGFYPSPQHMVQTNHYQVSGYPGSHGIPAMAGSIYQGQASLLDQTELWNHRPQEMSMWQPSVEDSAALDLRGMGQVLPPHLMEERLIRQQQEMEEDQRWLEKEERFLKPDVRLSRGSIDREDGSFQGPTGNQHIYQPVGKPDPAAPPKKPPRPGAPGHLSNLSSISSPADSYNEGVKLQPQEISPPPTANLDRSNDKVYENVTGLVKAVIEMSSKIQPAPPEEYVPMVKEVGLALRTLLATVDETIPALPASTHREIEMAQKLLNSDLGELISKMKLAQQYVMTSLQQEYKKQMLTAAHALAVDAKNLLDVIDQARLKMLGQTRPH
IGF-IR, sequence (P08069 31-1367): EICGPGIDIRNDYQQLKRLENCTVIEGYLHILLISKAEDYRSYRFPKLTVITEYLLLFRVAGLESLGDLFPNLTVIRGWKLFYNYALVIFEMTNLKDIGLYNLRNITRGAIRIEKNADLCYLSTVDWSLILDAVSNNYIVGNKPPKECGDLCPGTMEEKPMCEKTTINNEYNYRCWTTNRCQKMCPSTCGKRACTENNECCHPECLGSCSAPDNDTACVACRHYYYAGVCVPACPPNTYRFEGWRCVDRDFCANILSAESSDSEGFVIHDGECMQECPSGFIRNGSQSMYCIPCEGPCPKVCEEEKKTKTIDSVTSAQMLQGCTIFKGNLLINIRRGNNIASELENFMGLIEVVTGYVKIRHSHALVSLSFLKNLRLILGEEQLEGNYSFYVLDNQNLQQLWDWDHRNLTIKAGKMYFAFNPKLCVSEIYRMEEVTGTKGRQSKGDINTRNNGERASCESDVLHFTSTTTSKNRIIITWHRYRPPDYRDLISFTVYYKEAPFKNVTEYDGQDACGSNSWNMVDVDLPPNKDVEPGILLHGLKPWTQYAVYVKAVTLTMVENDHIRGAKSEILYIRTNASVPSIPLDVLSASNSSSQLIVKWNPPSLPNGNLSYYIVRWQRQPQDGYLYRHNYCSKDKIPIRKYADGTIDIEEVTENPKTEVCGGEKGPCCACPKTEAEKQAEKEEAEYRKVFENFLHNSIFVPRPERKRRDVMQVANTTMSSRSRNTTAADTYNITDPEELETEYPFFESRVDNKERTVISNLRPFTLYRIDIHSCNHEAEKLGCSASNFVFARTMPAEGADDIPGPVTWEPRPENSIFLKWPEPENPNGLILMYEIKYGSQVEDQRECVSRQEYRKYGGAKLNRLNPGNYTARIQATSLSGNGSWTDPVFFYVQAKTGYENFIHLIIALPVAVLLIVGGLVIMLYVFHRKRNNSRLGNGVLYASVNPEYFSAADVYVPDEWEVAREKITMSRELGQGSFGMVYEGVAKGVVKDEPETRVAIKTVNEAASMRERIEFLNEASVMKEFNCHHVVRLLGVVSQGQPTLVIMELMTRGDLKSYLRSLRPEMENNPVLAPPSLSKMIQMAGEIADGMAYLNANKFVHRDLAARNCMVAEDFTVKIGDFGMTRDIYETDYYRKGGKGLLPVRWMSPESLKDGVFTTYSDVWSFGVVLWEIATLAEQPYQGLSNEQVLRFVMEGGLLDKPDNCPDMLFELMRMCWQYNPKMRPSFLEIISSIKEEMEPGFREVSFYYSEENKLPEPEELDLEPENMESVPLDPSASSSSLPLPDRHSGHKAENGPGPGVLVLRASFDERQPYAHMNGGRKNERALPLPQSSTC
Focal Adhesion Kinase (FAK), sequence (Q05397 384-706): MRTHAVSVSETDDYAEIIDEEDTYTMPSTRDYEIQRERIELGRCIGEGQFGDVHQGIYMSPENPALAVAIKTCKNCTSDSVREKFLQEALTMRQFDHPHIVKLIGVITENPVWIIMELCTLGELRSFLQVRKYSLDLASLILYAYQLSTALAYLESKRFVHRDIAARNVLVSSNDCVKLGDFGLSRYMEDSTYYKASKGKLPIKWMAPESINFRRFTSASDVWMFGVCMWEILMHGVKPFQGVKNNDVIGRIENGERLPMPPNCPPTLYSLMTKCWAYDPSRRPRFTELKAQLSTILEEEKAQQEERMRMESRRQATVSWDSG
GST-ALK protein tyrosine kinase, sequence (Q9UM73 1116-1392): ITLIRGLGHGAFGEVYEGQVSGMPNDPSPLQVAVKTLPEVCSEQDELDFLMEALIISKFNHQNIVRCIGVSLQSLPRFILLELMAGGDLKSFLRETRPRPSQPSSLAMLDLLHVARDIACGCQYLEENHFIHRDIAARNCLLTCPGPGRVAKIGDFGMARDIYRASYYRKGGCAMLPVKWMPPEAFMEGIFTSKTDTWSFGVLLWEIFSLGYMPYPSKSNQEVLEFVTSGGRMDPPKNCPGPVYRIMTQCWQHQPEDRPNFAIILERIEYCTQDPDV

Compound	IC50 [1] [nM]	IC50 (FAK) [nM]	IC50 ([2]; read-out: FAK IC50) [nM]	IC50 [3] [nM]	IC50 (T Cell) [nM]	IC50 (IGF-IR) [nM]	IC50 [4] [nM]	IC50 ([2]; FAK IC50) [nM]
CNC(=O)c1ccccc1Nc1nc(Nc2ccc(N3CCOCC3)cc2OC)ncc1Cl [2-[5-chloro-2-(2-methoxy-4-morpholin-4-yl-phenylamino)-pyrimidin-4-ylamino]-N-methyl-benzamide]	97	–	–	–	–	–	–	–
CNS(=O)(=O)c1ccccc1Nc1nc(Nc2cc(N3CCOCC3)ccc2OC)ncc1Br [Example 3-32]	–	180	14	490	280	120	–	–
CNS(=O)(=O)c1ccccc1Nc1nc(Nc2ccc(OC3CCN(C)CC3)cc2OC)ncc1Br [Example 3-33]	–	30	2.9	50	90	130	–	–
CNS(=O)(=O)c1ccccc1Nc1nc(Nc2cc(OCCN3CCOCC3)ccc2OC)ncc1Br [Example 3-35]	–	20	13	170	800	3550	–	–
CNS(=O)(=O)c1ccccc1Nc1nc(Nc2ccc(N3CCN(C)CC3)cc2OC)ncc1Br [Example 3-39]	–	20	2	30	1000	90	–	–
CNC(=O)c1ccccc1Nc1nc(Nc2ccc(N3CCC(NC)C3)cc2OC)ncc1Cl (centres unmarked) [Example 7-12]	–	900	1.9	1000	310	620	–	–
CNC(=O)c1ccccc1Nc1nc(Nc2ccc(N3CCN4CCOC[C@H]4C3)cc2OC)ncc1Cl [Example 7-15]	–	60	4.5	190	–	260	0.5 to 200	–
CNC1CCN(c2ccc(Nc3ncc(Cl)c(Nc4ccccc4S(=O)(=O)NC(C)C)n3)c(OC)c2)C1 (centres unmarked) [Example 19-1]	–	200	< 1	300	290	1410	–	–
COc1cc(N2CCOCC2)ccc1Nc1ncc(Cl)c(Nc2ccccc2S(=O)(=O)NC(C)C)n1 [Example 19-8]	–	30	3.2	400	290	130	–	–
COc1cc(N2CCC(N(C)C)C2)ccc1Nc1ncc(Cl)c(Nc2ccccc2S(=O)(=O)NC(C)C)n1 (centres unmarked) [Example 19-9]	–	–	–	390	300	480	–	1.3
CC(C)NS(=O)(=O)c1ccccc1Nc1nc(Nc2ccc(OC3CCN(C)CC3)cc2F)ncc1Cl [Example 19-28]	–	100	4.8	120	300	460	–	–

Further lines, with some results ahead:

IC50 [1] [nM]	IC50 (FAK) [nM]	IC50 ([2]; read-out: FAK IC50) [nM]	IC50 [3] [nM]	IC50 (T Cell) [nM]	IC50 (IGF-IR) [nM]	IC50 [4] [nM]	Compound	IC50 ([2]; FAK IC50) [nM]
–	300	10	180	250	700	–	CNS(=O)(=O)c1ccccc1Nc1nc(Nc2ccc(N3CCOCC3)cc2OC)ncc1Cl [Example 20-1]	–
–	120	9	170	750	520	–	CNS(=O)(=O)c1ccccc1Nc1nc(Nc2ccc(N3CCN(C(C)=O)CC3)cc2OC)ncc1Cl [Example 20-2]	–
–	600	3.4	200	630	530	–	CCC(CC)NS(=O)(=O)c1ccccc1Nc1nc(Nc2ccc(OC3CCN(C)CC3)cc2OC)ncc1Cl [Example 23-1]	–
–	30	1.9	120	90	390	–	CCCS(=O)(=O)c1ccccc1Nc1nc(Nc2ccc(N3CCN(C(C)=O)CC3)cc2OC)ncc1Cl [Example 26-2]	–
–	100	1.4	130	–	230	0.5 to 200	CCCS(=O)(=O)c1ccccc1Nc1nc(Nc2ccc(N3CCC(N4CCCCC4)CC3)cc2OC)ncc1Cl [Example 26-3]	–
–	50	4.9	430	290	1160	–	CCCS(=O)(=O)c1ccccc1Nc1nc(Nc2ccc(N3CCC(O)CC3)cc2OC)ncc1Cl [Example 26-4]	–
